Measurements taken from patent EP4722211A1, “FGFR2/3 SELECTIVE INHIBITOR, PHARMACEUTICAL COMPOSITION AND USE THEREOF” (Changchun Genescience Pharmaceutical Co., Ltd., priority 2023, dated 2024).
Where two headings read alike, the source gives them in different places.

What was measured:
FGFR1 = target: T1, FGFR1 (Homo sapiens, UniProt P11362); test: Kinase inhibitory activity by HTRF method (FGFR1); assay type: biochemical; conditions: highest concentration 3000 nM, 10 concentrations, duplicate
T1 construct: purchased Invitrogen PR4660A
T1 sequence (P11362 22-822): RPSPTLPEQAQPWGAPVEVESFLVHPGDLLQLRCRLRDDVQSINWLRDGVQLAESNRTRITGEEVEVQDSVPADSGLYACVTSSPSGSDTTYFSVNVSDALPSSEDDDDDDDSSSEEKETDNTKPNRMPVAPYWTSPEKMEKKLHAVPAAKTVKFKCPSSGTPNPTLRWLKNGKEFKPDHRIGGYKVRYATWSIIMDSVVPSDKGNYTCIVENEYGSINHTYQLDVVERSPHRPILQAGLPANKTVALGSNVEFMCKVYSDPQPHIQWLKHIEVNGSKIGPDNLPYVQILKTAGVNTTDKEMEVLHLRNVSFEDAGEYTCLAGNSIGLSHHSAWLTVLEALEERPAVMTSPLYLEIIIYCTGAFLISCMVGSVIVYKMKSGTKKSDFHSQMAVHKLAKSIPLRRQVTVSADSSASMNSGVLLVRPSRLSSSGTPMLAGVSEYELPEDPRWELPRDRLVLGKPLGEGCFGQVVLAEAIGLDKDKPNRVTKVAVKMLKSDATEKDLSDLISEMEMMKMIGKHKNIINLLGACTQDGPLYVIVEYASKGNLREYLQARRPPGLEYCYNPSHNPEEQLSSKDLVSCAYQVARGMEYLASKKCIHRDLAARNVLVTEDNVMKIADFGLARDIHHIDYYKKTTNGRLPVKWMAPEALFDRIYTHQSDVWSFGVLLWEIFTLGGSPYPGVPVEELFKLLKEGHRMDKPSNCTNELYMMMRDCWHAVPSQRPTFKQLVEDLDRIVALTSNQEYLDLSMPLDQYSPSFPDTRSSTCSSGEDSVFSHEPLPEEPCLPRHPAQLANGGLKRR
Description: (§1) The inhibitory activity of the compounds on FGFR1 and FGFR3 kinases was tested by HTRF method. The highest concentration tested was 3000 nM, which was three-fold diluted to give 10 concentrations. The test was duplicated. […]

FGFR3 = target: T2, FGFR3 (Homo sapiens, UniProt P22607); test: Kinase inhibitory activity by HTRF method (FGFR3); assay type: biochemical; conditions: highest concentration 3000 nM, 10 concentrations, duplicate
T2 construct: purchased Invitrogen PR4631B
T2 sequence (P22607 23-806): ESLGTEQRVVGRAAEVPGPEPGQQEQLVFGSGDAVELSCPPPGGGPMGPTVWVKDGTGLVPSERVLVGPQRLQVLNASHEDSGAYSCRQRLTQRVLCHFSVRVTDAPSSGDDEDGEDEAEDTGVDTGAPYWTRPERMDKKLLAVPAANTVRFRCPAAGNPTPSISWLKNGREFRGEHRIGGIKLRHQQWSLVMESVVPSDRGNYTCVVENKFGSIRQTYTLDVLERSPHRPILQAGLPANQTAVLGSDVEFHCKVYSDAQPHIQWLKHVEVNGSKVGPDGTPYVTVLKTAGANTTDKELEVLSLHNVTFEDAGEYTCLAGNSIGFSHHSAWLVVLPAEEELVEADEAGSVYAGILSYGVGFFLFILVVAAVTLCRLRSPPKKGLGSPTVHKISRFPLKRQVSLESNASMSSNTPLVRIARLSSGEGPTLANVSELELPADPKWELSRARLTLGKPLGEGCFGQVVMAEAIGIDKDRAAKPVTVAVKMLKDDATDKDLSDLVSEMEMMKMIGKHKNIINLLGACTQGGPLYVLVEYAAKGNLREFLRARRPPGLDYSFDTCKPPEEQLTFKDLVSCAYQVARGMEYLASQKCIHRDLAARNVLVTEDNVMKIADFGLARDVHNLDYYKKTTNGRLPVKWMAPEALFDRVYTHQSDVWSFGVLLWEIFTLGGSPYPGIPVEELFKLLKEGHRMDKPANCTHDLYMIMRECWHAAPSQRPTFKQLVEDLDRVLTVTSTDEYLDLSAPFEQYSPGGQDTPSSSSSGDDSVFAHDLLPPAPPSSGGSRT
Description: as §1

Ba/F3-FGFR3 cells = test: Cell proliferation inhibition, CTG method (Ba/F3-FGFR3); assay type: cell-based; conditions: 72 hrs
Description: (§2) The CTG method was used to detect the inhibitory effect of the compound on the proliferation of Ba/F3-FGFR1, Ba/F3-FGFR2, Ba/F3-FGFR3, and Ba/F3-FGFR4 cells. The highest concentration tested was 3000 nM, which was three-fold diluted to give 10 concentrations. The test was duplicated.
• a) Ba/F3-FGFR1, Ba/F3-FGFR2, Ba/F3-FGFR3, and Ba/F3-FGFR4 were cultured to exponential growth period for later use. Complete medium: RPMI1640 medium, 10% FBS, 1% GlutaMAX and P/S, 10 ng/mL FGF1, 10 µg/mL Heparin,10 µM 2-mercaptoethanol, 2 µg/mL puromycin. • b) The stock solution of the compound of 3000 nM was diluted into a 384 cell culture plate using the ECHO liquid handling station, and centrifuged at 1000 g for 1 min. • c) The cells were digested. 30 µL of Ba/F3-FGFR1, Ba/F3-FGFR2, Ba/F3-FGFR3, or Ba/F3-FGFR4 (500/well) was uniformly seeded in a 384-well black-edge cell culture plate containing the compound, having the wells at the edge blocked with 50 µL PBS, and cultured in an incubator with CO2 at 37°C for 72 hrs. • d) 30 µL of Cell-Titer-Glo reagent was added to each well, shaken and mixed evenly on a shaker, and then incubated at 37°C for 30 min. Then the signal was detected on a microplate reader after the signal was stable.

Ba/F3-FGFR1 cells = test: Cell proliferation inhibition, CTG method (Ba/F3-FGFR1); assay type: cell-based; conditions: 72 hrs
Description: as §2
(§3) • a) Ba/F3-FGFR1, Ba/F3-FGFR2, Ba/F3-FGFR3, and Ba/F3-FGFR4 were cultured to exponential growth period for later use. […] 30 µL of Ba/F3-FGFR1, Ba/F3-FGFR2, Ba/F3-FGFR3, or Ba/F3-FGFR4 (500/well) was uniformly seeded in a 384-well black-edge cell culture plate containing the compound, having the wells at the edge blocked with 50 µL PBS, and cultured in an incubator with CO2 at 37°C for 72 hrs. • d) 30 µL of Cell-Titer-Glo reagent was added to each well, shaken and mixed evenly on a shaker, and then incubated at 37°C for 30 min. Then the signal was detected on a microplate reader after the signal was stable.

Ba/F3-FGFR2 cells = test: Cell proliferation inhibition, CTG method (Ba/F3-FGFR2); assay type: cell-based; conditions: 72 hrs
Description: as §2, §3

[1] = Pharmacokinetic study in SD rats after oral gavage, plasma by LC/MS/MS; assay type: in vivo; conditions: rat, 2 mg/kg, 2mpk; for AUC(0-inf): read-out: AUCINF_pred; for MRT inf: read-out: MRTINF_pred
Description: The SD rats were used as test animals. The drug concentration in plasma at different time points was determined by LC/MS/MS method after the compound of the present invention was administered to the SD rats by oral gavage. The pharmacokinetic behavior of the compound of the present invention in SD rats was studied and the pharmacokinetic characteristics were evaluated.
24 SD Rat rats (female:male 1:1), purchased from Shanghai Ji Hui Laboratory Animal Breeding Co., Ltd., animal production license SCXK (Shanghai) 2017-0012, were divided into 6 groups.
The prescription was 5% DMSO + 60% PEG300 + 35% glucose aqueous solution. A proper amount of the representative compound of the present invention (converted according to the purity and salt coefficient) was weighed. A prescribed amount of DMSO was added, and a clear and transparent solution was obtained by vortex. Then a prescribed amount of PEG300 was added, and mixed by vortex. Then, a prescribed amount of a glucose aqueous solution was added. A 0.6 mg/mL or 2 mg/mL solution was obtained. During the preparation, if a solution cannot be obtained, ultrasonication in a water bath at a temperature not higher than 60°C can be performed to facilitate the dissolution.
Rats were administered by oral gavage (2mpk) after fasting for one night.
At 15 min, 30 min, 1 hr, 2 hrs, 4 hrs, 6 hrs, 8 hrs, and 24 hrs after administration, about 30 µL blood samples were collected into an anticoagulation tube containing the anticoagulant EDTA-K2, and centrifuged within 30 minutes to obtain the plasma. The whole blood sample was placed on wet ice before centrifugation. All of the collected plasma samples were stored on dry ice or at a temperature not higher than -70°C before analysis and detection. Liquid chromatography-tandem mass spectrometry (LC/MS/MS) was used to determine the original drug concentration in the plasma and the administered solution.

Ba/F3-FGFR4 cells = test: Cell proliferation inhibition, CTG method (Ba/F3-FGFR4); assay type: cell-based; conditions: 72 hrs
Description: as §2, §3

[2] = both sexes, Sprague-Dawley (SD)

SMILES | IC50 (Ba/F3-FGFR3 cells) | IC50 (Ba/F3-FGFR1 cells) | IC50 (Ba/F3-FGFR2 cells) | IC50 (Ba/F3-FGFR4 cells) | other results
CC(Oc1ccc2[nH]nc(-c3ccc(S(C)(=N)=O)nc3)c2n1)c1c(Cl)cncc1Cl (single isomer, unassigned) [Cpd-01C, (5-(5-(1-(3,5-dichloropyridin-4-yl)ethoxy)-1H-pyrazolo[4,3-b]pyridin-3-yl)pyridin-2-yl)(imino)(methyl)-λ^6-sulfonyl ketone] | – | – | – | – | IC50 (FGFR1): 34.8 nM; IC50 (FGFR3): 4.8 nM
CC(Oc1ccc2[nH]nc(-c3ccc(S(C)(=N)=O)nc3)c2n1)c1c(Cl)cncc1Cl (single isomer, unassigned) [Cpd-01D, (5-(5-(1-(3,5-dichloropyridin-4-yl)ethoxy)-1H-pyrazolo[4,3-b]pyridin-3-yl)pyridin-2-yl)(imino)(methyl)-λ^6-sulfonyl ketone] | – | – | – | – | IC50 (FGFR1): 36.1 nM; IC50 (FGFR3): 6.2 nM
C[C@@H](Oc1ccc2[nH]nc(-c3ccc(C4=CCS(=O)(=O)CC4)nc3)c2n1)c1c(Cl)cncc1Cl [Cpd-02A, (R)-4-(5-(5-(1-(3,5-dichloropyridin-4-yl)ethoxy)-1H-pyrazolo[4,3-b]pyridin-3-yl)pyridin-2-yl)-3,6-dihydro-2H-thiopyran 1,1-dioxide] | 5.06 nM | 23.9 nM | – | – | –
C[C@@H](Oc1ccc2[nH]nc(-c3cnc(C4=CCS(=O)(=O)CC4)c(F)c3)c2n1)c1c(Cl)cncc1Cl [Cpd-03A, (R)-4-(5-(5-(1-(3,5-dichloropyridin-4-yl)ethoxy)-1H-pyrazolopyridin-3-yl)-3-fluoropyridin-2-yl)-3,6-dihydro-2H-thiapyran 1,1-dioxide] | 4.2 nM | 14.2 nM | 8.4 nM | 33.8 nM | AUC(0-t) [1]: 86.2 ng·h/mL; Cmax [1]: 24.4 ng/mL; Tmax [1]: 1 h; half-life [1]: 1.5 h; AUC(0-inf) [1]: 91.5 ng·h/mL; MRT inf [1]: 2 h
C[C@@H](Oc1ccc2[nH]nc(-c3ccc(N4CCN(S(C)(=O)=O)CC4)nc3)c2n1)c1c(Cl)cncc1Cl [Cpd-119A] | 7.3 nM | 45.9 nM | – | – | –
C[C@@H](Oc1ccc2[nH]nc(-c3ccc(N4CCC(C(C)(C)O)CC4)nc3)c2n1)c1c(Cl)cncc1Cl [Cpd-124A] | 13.6 nM | 123 nM | 16.7 nM | 80.4 nM | –
Cc1nn(C2CC2)cc1-c1ccc(-c2n[nH]c3ccc(O[C@H](C)c4c(Cl)cncc4Cl)nc23)cn1 [Cpd-145A, (R)-3-(6-(1-cyclopropyl-3-methyl-1H-pyrazol-4-yl)pyridin-3-yl)-5-(1-(3,5-dichloropyridin-4-yl)ethoxy)-1H-pyrazolo[4,3-b]pyridine] | 9.7 nM | 31.4 nM | 10.6 nM | 76.3 nM | AUC(0-t) [1, 2]: 1570 ng·h/mL; Cmax [1, 2]: 186 ng/mL; Tmax [1, 2]: 2 h; half-life [1, 2]: 4 h; AUC(0-inf) [1, 2]: 1610 ng·h/mL; MRT inf [1, 2]: 5.6 h
Cc1nn(CC(C)(C)O)c(C)c1-c1ccc(-c2n[nH]c3ccc(O[C@H](C)c4c(Cl)cncc4Cl)nc23)cn1 [Cpd-158A] | 2.6 nM | 23.6 nM | 2 nM | 55.4 nM | –
Cc1nn(CC(C)(C)O)c(C)c1-c1ncc(-c2n[nH]c3ccc(O[C@H](C)c4c(Cl)cncc4Cl)nc23)cc1F [Cpd-161A, (R)-1-(4-(5-(5-(1-(3,5-dichloropyridin-4-yl)ethoxy)-1H-pyrazolo[4,3-b]pyridin-3-yl)-3-fluoropyridin-2-yl)-3,5-dimethyl-1H-pyrazol-1-yl)-2-methyl-2-propanol] | 15.4 nM | 98.3 nM | 11.7 nM | 237 nM | –
Cc1nn(CC(C)(C)O)cc1-c1ncc(-c2n[nH]c3ccc(O[C@H](C)c4c(Cl)cncc4Cl)nc23)cc1F [Cpd-162A, (R)-1-(4-(5-(5-(1-(3,5-dichloropyridin-4-yl)ethoxy)-1H-pyrazolo[4,3-b]pyridin-3-yl)-3-fluoropyridin-2-yl)-3-methyl-1H-pyrazol-1-yl)-2-methyl-2-propanol] | 4 nM | 32.6 nM | 3.6 nM | 29.8 nM | –
Cc1cc2[nH]nc(-c3ccc(-c4c(C)nn(CC(C)(C)O)c4C)nc3)c2nc1O[C@H](C)c1c(Cl)cncc1Cl [Cpd-175A, (R)-1-(4-(5-(5-(1-(3,5-dichloropyridin-4-yl)ethoxy)-6-methyl-1H-pyrazolo[4,3-b]pyridin-3-yl)pyridin-2-yl)-3,5-dimethyl-1H-pyrazol-1-yl)-2-methyl-2-propanol] | 4.9 nM | 31.5 nM | 3.5 nM | 72.9 nM | AUC(0-t) [1, 2]: 359 ng·h/mL; Cmax [1, 2]: 82.6 ng/mL; Tmax [1, 2]: 2 h; half-life [1, 2]: 3.2 h; AUC(0-inf) [1, 2]: 508 ng·h/mL; MRT inf [1, 2]: 3.5 h
CCN1CCN(c2ccc(Nc3cc(N(C)C(=O)Nc4c(Cl)c(OC)cc(OC)c4Cl)ncn3)cc2)CC1 [Infigratinib, reference compound] | 11.9 nM | 8.1 nM | 4 nM | 277 nM | AUC(0-t) [1, 2]: 103 ng·h/mL; Cmax [1, 2]: 22.2 ng/mL; Tmax [1, 2]: 3 h; half-life [1, 2]: 1.1 h; AUC(0-inf) [1, 2]: 106 ng·h/mL; MRT inf [1, 2]: 3.1 h
